Values joined by “and” are separate entries in the source; they are usually repeats but may differ in a detail not shown here. Equal values may be shown once. Toxic doses and inconclusive results are not listed. No stated cut-off is given here; in the data, active means T/C of 150% or more; inactive means T/C below 125%.
System: L1210 leukemia ip in BDF1 mice, survival T/C
Assay: NCI In Vivo Anticancer Drug Screen. Data for tumor model L1210 Leukemia (intraperitoneal) in B6D2F1 (BDF1) mice
Details: endpoint: mean survival time, higher = longer survival
Outline: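 Read-out is survival time, reported as the treated-group measurement over the vehicle-control measurement.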

[1] = dose: 100.0 mg/kg/injection, schedule: Q04DX003 (ip), vehicle: saline with Tween-80
[2] = dose: 200.0 mg/kg/injection, schedule: Q04DX003 (ip), vehicle: saline with Tween-80

Measured: T/C

C/C=C/C(=O)NCC(=O)O
inactive: dose: 100.0 mg/kg/injection, schedule: Q01DX001 (ip), vehicle: saline 90 % of control | dose: 200.0 mg/kg/injection, schedule: Q01DX001 (ip), vehicle: saline 97 % of control | dose: 400.0 mg/kg/injection, schedule: Q01DX001 (ip), vehicle: saline 103 % of control

IC1CCC(I)C2CCC1O2 (centres undefined) (tested in a mixture with another compound)
inactive: dose: 50.0 mg/kg/injection, schedule: Q04DX003 (ip), vehicle: Klucel (hydroxypropylcellulose) (HPC) 106 % of control | dose: 100.0 mg/kg/injection, schedule: Q01DX009 (ip), vehicle: Klucel (hydroxypropylcellulose) (HPC) 106 % of control | dose: 100.0 mg/kg/injection, schedule: Q04DX003 (ip), vehicle: Klucel (hydroxypropylcellulose) (HPC) 101 % of control | dose: 200.0 mg/kg/injection, schedule: Q01DX009 (ip), vehicle: Klucel (hydroxypropylcellulose) (HPC) 104 % of control | dose: 200.0 mg/kg/injection, schedule: Q04DX003 (ip), vehicle: Klucel (hydroxypropylcellulose) (HPC) 98 % of control and 100 % of control | dose: 400.0 mg/kg/injection, schedule: Q01DX009 (ip), vehicle: Klucel (hydroxypropylcellulose) (HPC) 96 % of control | dose: 400.0 mg/kg/injection, schedule: Q04DX003 (ip), vehicle: Klucel (hydroxypropylcellulose) (HPC) 100 % of control

CCCCCCCCCCCc1cccc2ccccc12
inactive: dose: 50.0 mg/kg/injection, schedule: Q04DX002 (ip), vehicle: saline with Tween-80 92 % of control | dose: 100.0 mg/kg/injection, schedule: Q04DX002 (ip), vehicle: saline with Tween-80 89 % of control | dose: 200.0 mg/kg/injection, schedule: Q04DX002 (ip), vehicle: saline with Tween-80 92 % of control | dose: 400.0 mg/kg/injection, schedule: Q04DX002 (ip), vehicle: saline with Tween-80 95 % of control

COc1cc(C=C(C(C)=O)C(C)=O)ccc1O
inactive: [1] 112 % of control | [2] 109 % of control

Nc1nc(N)c2[nH]cnc2n1
inactive: dose: 12.5 mg/kg/injection, schedule: Q01DX Z (ip), vehicle: carboxymethylcellulose (CMC) 91 % of control | dose: 17.49 mg/kg/injection, schedule: Q01DX Z (ip), vehicle: carboxymethylcellulose (CMC) 86 % of control | dose: 25.0 mg/kg/injection, schedule: Q01DX009 (ip), vehicle: Klucel (hydroxypropylcellulose) (HPC) 111 % of control | dose: 25.0 mg/kg/injection, schedule: Q01DX Z (ip), vehicle: carboxymethylcellulose (CMC) 93 % of control | dose: 34.98 mg/kg/injection, schedule: Q01DX Z (ip), vehicle: carboxymethylcellulose (CMC) 92 % of control | dose: 44.0 mg/kg/injection, schedule: Q02DX010 (ip), vehicle: other 100 % of control | dose: 50.0 mg/kg/injection, schedule: Q01DX009 (ip), vehicle: Klucel (hydroxypropylcellulose) (HPC) 110 % of control | dose: 66.0 mg/kg/injection, schedule: Q02DX010 (ip), vehicle: other 105 % of control | dose: 69.95 mg/kg/injection, schedule: Q01DX Z (ip), vehicle: carboxymethylcellulose (CMC) 95 % of control | dose: 100.0 mg/kg/injection, schedule: Q01DX001 (ip), vehicle: carboxymethylcellulose (CMC) 97 % of control | dose: 100.0 mg/kg/injection, schedule: Q01DX Z (ip), vehicle: carboxymethylcellulose (CMC) 91 % of control | dose: 100.0 mg/kg/injection, schedule: Q02DX010 (ip), vehicle: other 116 % of control | dose: 139.9 mg/kg/injection, schedule: Q01DX Z (ip), vehicle: carboxymethylcellulose (CMC) 106 % of control | dose: 150.0 mg/kg/injection, schedule: Q02DX010 (ip), vehicle: other 117 % of control | dose: 200.0 mg/kg/injection, schedule: Q01DX001 (ip), vehicle: carboxymethylcellulose (CMC) 90 % of control | dose: 225.0 mg/kg/injection, schedule: Q02DX010 (ip), vehicle: other 60 % of control | dose: 400.0 mg/kg/injection, schedule: Q01DX001 (ip), vehicle: carboxymethylcellulose (CMC) 97 % of control

NC(=O)NN=C1CCCCCCCCCCC1
inactive: dose: 100.0 mg/kg/injection, schedule: Q01DX001 (ip), vehicle: other 95 % of control | [1] 97 % of control | dose: 200.0 mg/kg/injection, schedule: Q01DX001 (ip), vehicle: other 95 % of control | [2] 105 % of control | dose: 400.0 mg/kg/injection, schedule: Q01DX001 (ip), vehicle: other 103 % of control | dose: 400.0 mg/kg/injection, schedule: Q04DX003 (ip), vehicle: saline with Tween-80 94 % of control

— PubChem BioAssay AID248 (DTP/NCI, 2004)
